Source: ChEMBL document CHEMBL5137032, “Design, synthesis of DNA-interactive 4-thiazolidinone-based indolo-/pyrroloazepinone conjugates as potential cytotoxic and topoisomerase I inhibitors” (Eur J Med Chem, 2022)
The source made the active and inactive calls. The rule behind the calls is not given here.

What was measured:
SK-MEL-28 [1] = test: Induction of apoptosis in human SK-MEL-28 cells assessed as necrotic cells at 2.08 to 8.32 uM incubated for 48 hrs by Annexin V-FITC/propidium iodide staining based flow cytometric analysis; assay type: functional; details: dose 2.08-8.32 µM
SK-MEL-28 [2] = test: Anti-migration activity in human SK-MEL-28 cells assessed as distance travelled at 2.08 uM by wound healing assay based phase contrast microscopy; assay type: functional
SK-MEL-28 [3] = test: Induction of intracellular ROS generation in human SK-MEL-28 cells at 2.08 to 8.32 uM incubated for 48 hrs by […] fluorescence microscopic analysis; assay type: functional, cell-based; details: dose 2.08-8.32 µM, DDE = dose-dependent effect
SK-MEL-28 [4] = test: Induction of apoptosis in human SK-MEL-28 cells assessed as changes in cell morphology at 2.08 to 8.32 uM incubated for 48 hrs by phase contrast microscopy; assay type: functional, cell-based; details: dose 2.08-8.32 µM
Calf thymus DNA [5] = test: Binding affinity to calf thymus DNA assessed as decrease in viscosity at 15 uM by ethidium bromide-Hoechst 33342 staining based analysis; assay type: nucleic-acid assay; details: Bos taurus
SK-MEL-28 [6] = test: Induction of apoptosis in human SK-MEL-28 cells assessed as apoptotic body fragmentation at 2.08 to 8.32 uM incubated for 48 hrs by AO/EB staining based fluorescence microscopy; assay type: functional, cell-based; details: dose 2.08-8.32 µM, DDE = dose-dependent effect
SK-MEL-28 [7] = test: Induction of apoptosis in human SK-MEL-28 cells assessed as changes in nuclear morphology at 2.08 to 8.32 uM incubated for 48 hrs by DAPI staining based fluorescence microscopic analysis; assay type: functional, cell-based; details: dose 2.08-8.32 µM
SK-MEL-28 [8] = test: Anti-migration activity in human SK-MEL-28 cells assessed as distance travelled at 8.32 uM by wound healing assay based phase contrast microscopy; assay type: functional
HT-29 = test: Cytotoxicity against human HT-29 cells assessed as cell growth inhibition incubated for 48 hrs by MTT assay; assay type: functional, cell-based; details: HT-29, 48 h
SK-MEL-28 [9] = test: Inhibition of cell migration in human SK-MEL-28 cells at 2.08 to 8.32 uM incubated for 48 hrs by wound healing assay based phase contrast microscopy; assay type: functional; details: dose 2.08-8.32 µM, DDE = dose-dependent effect
SK-MEL-28 [10] = test: Anti-migration activity in human SK-MEL-28 cells assessed as distance travelled at 4.16 uM by wound healing assay based phase contrast microscopy; assay type: functional
SK-MEL-28 [11] = test: Induction of apoptosis in human SK-MEL-28 cells assessed as reduction on viable cells at 2.08 to 8.32 uM incubated for 48 hrs by phase contrast microscopy; assay type: functional, cell-based; details: dose 2.08-8.32 µM, DDE = dose-dependent effect
SK-MEL-28 [12] = test: Cytotoxicity against human SK-MEL-28 cells assessed as cell growth inhibition incubated for 48 hrs by MTT assay; assay type: functional, cell-based; details: SK-MEL-28, 48 h
[13] = target: T1, DNA topoisomerase 1 (Homo sapiens) (UniProt P11387); test: Inhibition of DNA topoisomerase 1 (unknown origin) assessed as reduction in pBR322 DNA relaxation at 10 uM incubated for 30 mins measured by agarose gel electrophoresis method relative to control
T1 sequence (whole entry): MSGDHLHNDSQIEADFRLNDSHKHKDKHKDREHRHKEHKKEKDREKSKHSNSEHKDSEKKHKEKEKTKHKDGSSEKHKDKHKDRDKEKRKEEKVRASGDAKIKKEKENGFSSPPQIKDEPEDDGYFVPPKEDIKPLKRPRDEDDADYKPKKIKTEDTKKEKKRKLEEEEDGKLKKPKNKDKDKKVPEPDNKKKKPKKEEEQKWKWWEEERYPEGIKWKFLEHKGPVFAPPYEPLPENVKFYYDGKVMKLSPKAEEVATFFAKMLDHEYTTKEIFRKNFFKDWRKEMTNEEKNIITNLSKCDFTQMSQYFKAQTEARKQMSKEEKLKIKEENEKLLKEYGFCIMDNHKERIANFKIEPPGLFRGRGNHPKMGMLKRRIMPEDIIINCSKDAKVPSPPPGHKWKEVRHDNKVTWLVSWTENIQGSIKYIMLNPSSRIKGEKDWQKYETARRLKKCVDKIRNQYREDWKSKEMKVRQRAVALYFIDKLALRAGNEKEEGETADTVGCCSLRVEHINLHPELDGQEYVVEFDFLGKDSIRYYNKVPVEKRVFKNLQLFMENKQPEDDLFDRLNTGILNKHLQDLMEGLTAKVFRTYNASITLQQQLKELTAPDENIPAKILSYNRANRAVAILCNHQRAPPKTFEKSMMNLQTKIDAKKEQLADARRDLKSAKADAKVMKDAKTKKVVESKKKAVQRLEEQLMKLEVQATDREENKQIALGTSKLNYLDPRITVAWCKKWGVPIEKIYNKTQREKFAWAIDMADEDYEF

Calf thymus DNA [14] = test: Binding affinity to calf thymus DNA assessed as hyperchromicity at 10 uM by circular dichroism spectroscopy; assay type: nucleic-acid assay; details: Bos taurus
SK-MEL-28 [15] = test: Induction of apoptosis in human SK-MEL-28 cells assessed as membrane blebbing at 2.08 to 8.32 uM incubated for 48 hrs by AO/EB staining based fluorescence microscopy; assay type: functional, cell-based; details: dose 2.08-8.32 µM, DDE = dose-dependent effect
SK-MEL-28 [16] = test: Anti-migration activity in human SK-MEL-28 cells assessed as distance travelled at 4.16 uM incubated for 48 hrs by wound healing assay based phase contrast microscopy; assay type: functional
HCT-116 = test: Cytotoxicity against human HCT-116 cells assessed as cell growth inhibition incubated for 48 hrs by MTT assay; assay type: functional, cell-based; details: HCT-116, 48 h
SK-MEL-28 [17] = test: Anti-migration activity in human SK-MEL-28 cells assessed as distance travelled at 2.08 uM incubated for 48 hrs by wound healing assay based phase contrast microscopy; assay type: functional
SK-MEL-28 [18] = test: Induction of apoptosis in human SK-MEL-28 cells assessed as chromatin condensation at 2.08 to 8.32 uM incubated for 48 hrs by DAPI staining based fluorescence microscopic analysis; assay type: functional, cell-based; details: dose 2.08-8.32 µM
SK-MEL-28 [19] = test: Anti-migration activity in human SK-MEL-28 cells assessed as distance travelled at 8.32 uM incubated for 48 hrs by wound healing assay based phase contrast microscopy; assay type: functional
SK-MEL-28 [20] = test: Induction of apoptosis in human SK-MEL-28 cells assessed as nuclear fragmentation at 2.08 to 8.32 uM incubated for 48 hrs by DAPI staining based fluorescence microscopic analysis; assay type: functional, cell-based; details: dose 2.08-8.32 µM
DNA topoisomerase 1 = target: T2, DNA topoisomerase 1 (Homo sapiens, UniProt P11387); test: Inhibition of human DNA topoisomerase 1 assessed as reduction in pBR322 DNA relaxation incubated for 1 hrs measured by agarose gel electrophoresis method
T2 sequence (P11387 whole entry): T1 sequence (whole entry)

SK-MEL-28 [21] = test: Induction of apoptosis in human SK-MEL-28 cells assessed as cell membrane disruption at 2.08 to 8.32 uM incubated for 48 hrs by phase contrast microscopy; assay type: functional, cell-based; details: dose 2.08-8.32 µM, DDE = dose-dependent effect
[22] = Cytotoxicity against rat NRK cells assessed as cell growth inhibition incubated for 48 hrs by MTT assay; assay type: toxicity, cell-based
SK-MEL-28 [23] = test: Induction of apoptosis in human SK-MEL-28 cells assessed as chromatin condensation at 2.08 to 8.32 uM incubated for 48 hrs by AO/EB staining based fluorescence microscopy; assay type: functional, cell-based; details: dose 2.08-8.32 µM, DDE = dose-dependent effect
A549 = test: Cytotoxicity against human A549 cells assessed as cell growth inhibition incubated for 48 hrs by MTT assay; assay type: functional, cell-based; details: A549, 48 h
SK-MEL-28 [24] = test: Induction of apoptosis in human SK-MEL-28 cells assessed as cell shrinkage at 2.08 to 8.32 uM incubated for 48 hrs by phase contrast microscopy; assay type: functional, cell-based; details: dose 2.08-8.32 µM, DDE = dose-dependent effect
MCF7 = test: Cytotoxicity against human MCF7 cells assessed as cell growth inhibition incubated for 48 hrs by MTT assay; assay type: functional, cell-based; details: MCF7, 48 h
SK-MEL-28 [25] = test: Inhibition of colony formation in human SK-MEL-28 cells assessed as decrease in colonies at 2.08 to 8.32 uM incubated for 7 days by crystal violet staining based assay; assay type: functional, cell-based; details: dose 2.08-8.32 µM, time 7.0 day, DDE = dose-dependent effect
Calf thymus DNA [26] = test: Binding affinity to calf thymus DNA assessed as hyperchromicity at 10 to 20 uM by UV-Vis spectroscopic analysis; assay type: nucleic-acid assay; details: Bos taurus; dose 10-20 µM
SK-MEL-28 [27] = test: Induction of apoptosis in human SK-MEL-28 cells assessed as late apoptotic cells measured upto 4.16 uM incubated for 48 hrs by Annexin V-FITC/propidium iodide staining based flow cytometric analysis; assay type: functional, cell-based
SK-MEL-28 [28] = test: Induction of apoptosis in human SK-MEL-28 cells assessed as cell shrinkage at 2.08 to 8.32 uM incubated for 48 hrs by AO/EB staining based fluorescence microscopy; assay type: functional; details: dose 2.08-8.32 µM, DDE = dose-dependent effect
[29] = target: DNA topoisomerase 2-alpha (Homo sapiens) (UniProt P11388); test: Inhibition of DNA topoisomerase 2 (unknown origin) assessed as reduction in decatenation using kDNA as substrate incubated for 30 mins measured by agarose gel electrophoresis method
Chain of DNA topoisomerase 2-alpha (Homo sapiens) (P11388 whole entry): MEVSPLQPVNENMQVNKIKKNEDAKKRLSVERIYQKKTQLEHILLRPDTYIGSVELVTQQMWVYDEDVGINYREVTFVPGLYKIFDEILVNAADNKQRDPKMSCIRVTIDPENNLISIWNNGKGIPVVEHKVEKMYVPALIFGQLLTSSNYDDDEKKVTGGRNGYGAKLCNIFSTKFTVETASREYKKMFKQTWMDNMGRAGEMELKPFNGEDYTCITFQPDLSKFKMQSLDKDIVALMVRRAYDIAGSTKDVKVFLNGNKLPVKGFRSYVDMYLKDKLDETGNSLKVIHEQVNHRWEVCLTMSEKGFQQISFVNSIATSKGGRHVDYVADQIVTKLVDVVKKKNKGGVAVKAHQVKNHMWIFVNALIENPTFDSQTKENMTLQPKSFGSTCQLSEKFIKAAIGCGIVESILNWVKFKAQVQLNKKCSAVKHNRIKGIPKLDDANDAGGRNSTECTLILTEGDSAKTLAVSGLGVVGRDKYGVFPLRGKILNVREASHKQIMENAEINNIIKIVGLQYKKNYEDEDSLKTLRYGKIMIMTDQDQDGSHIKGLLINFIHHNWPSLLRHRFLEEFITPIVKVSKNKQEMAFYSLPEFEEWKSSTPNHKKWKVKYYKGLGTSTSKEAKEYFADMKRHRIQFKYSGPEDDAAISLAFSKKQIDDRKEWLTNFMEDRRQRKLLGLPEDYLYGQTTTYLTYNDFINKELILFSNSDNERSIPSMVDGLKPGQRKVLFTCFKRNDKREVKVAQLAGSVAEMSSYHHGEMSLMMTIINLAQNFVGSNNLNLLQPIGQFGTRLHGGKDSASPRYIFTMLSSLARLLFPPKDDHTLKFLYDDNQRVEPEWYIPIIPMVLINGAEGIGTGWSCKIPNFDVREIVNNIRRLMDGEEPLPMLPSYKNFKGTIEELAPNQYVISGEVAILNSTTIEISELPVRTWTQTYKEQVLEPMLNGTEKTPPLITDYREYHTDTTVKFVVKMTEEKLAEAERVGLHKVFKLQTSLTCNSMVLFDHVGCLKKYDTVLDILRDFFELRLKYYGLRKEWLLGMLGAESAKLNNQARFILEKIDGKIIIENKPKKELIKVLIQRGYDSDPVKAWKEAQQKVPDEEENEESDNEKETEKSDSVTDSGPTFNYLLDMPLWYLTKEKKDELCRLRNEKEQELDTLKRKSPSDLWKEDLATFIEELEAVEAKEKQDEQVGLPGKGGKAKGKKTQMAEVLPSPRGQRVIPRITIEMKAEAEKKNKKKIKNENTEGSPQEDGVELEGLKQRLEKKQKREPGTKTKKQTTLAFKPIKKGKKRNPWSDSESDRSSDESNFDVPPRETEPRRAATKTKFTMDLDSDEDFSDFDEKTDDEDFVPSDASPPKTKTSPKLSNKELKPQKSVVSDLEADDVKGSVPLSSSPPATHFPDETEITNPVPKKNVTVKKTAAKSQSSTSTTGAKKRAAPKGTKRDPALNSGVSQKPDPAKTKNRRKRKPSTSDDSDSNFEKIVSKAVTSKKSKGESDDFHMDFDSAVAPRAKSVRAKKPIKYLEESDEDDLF

SMILES: Cc1ccc(C/N=C2\NC(=O)/C(=C3\CCNC(=O)c4[nH]ccc43)S2)cc1
- Activity (SK-MEL-28 [1]): 4.84%
- Activity (SK-MEL-28 [2]): 670 um
- Activity (SK-MEL-28 [3]): Dde
- Activity (SK-MEL-28 [4]): Active
- Activity (Calf thymus DNA [5]): Active
- Activity (SK-MEL-28 [6]): Dde
- Activity (SK-MEL-28 [7]): Active
- Activity (SK-MEL-28 [8]): 798.09 um
- IC50 (HT-29): 6.83 µM
- inhibition (SK-MEL-28 [9]): Dde
- Activity (SK-MEL-28 [10]): 736.33 um
- Activity (SK-MEL-28 [11]): Dde
- IC50 (SK-MEL-28 [12]): 4.15 µM
- inhibition [13]: 17%
- Activity (Calf thymus DNA [14]): Active
- Activity (SK-MEL-28 [15]): Dde
- Activity (SK-MEL-28 [16]): 568.42 um
- IC50 (HCT-116): 4.76 µM
- Activity (SK-MEL-28 [17]): 434.44 um
- Activity (SK-MEL-28 [18]): Active
- Activity (SK-MEL-28 [19]): 573.08 um
- Activity (SK-MEL-28 [20]): Active
- IC50 (DNA topoisomerase 1): 34 µM
- Activity (SK-MEL-28 [21]): Dde
- IC50 at 48 h [22]: 41.9 µM
- Activity (SK-MEL-28 [23]): Dde
- IC50 (A549): 9.08 µM
- Activity (SK-MEL-28 [24]): Dde
- IC50 (MCF7): 8.15 µM
- inhibition (SK-MEL-28 [25]): Dde
- Activity (Calf thymus DNA [26]): Active
- Activity (SK-MEL-28 [27]): Active
- Activity (SK-MEL-28 [28]): Dde
- inhibition [29]: Active
